Where two headings read alike, the source gives them in different places.
How the values were obtained:
[1] = target: Recombinant human Bcl-2 protein (Homo sapiens (Human), UniProt P10415); assay: Bcl-2 TR-FRET Assay; format: binding
How it was run: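 TR-FRET read (337 nm excitation, 520/490 nm emission) after 1 h with 0.5 nM FITC-labeled Bak peptide and Tb-cryptate anti-6His antibody. Bcl-2 at 0.05 nM had been pre-incubated 0.5 h with compound. IC50 fitted by four-parameter logistic equation.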

[2] = target: recombinant human Bcl-2-G101V protein (Homo sapiens (Human), UniProt P10415, G101V); assay: Bcl-2-G101V TR-FRET Assay; format: binding; details: Bcl-2 G101V mutant, TR-FRET; read-out: Biochemical assay (IC50, nM) Bcl-2 G101V
How it was run: (§1)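 Displacement of ligand from recombinant human Bcl-2-G101V measured by TR-FRET (ex337 nm, em490/520 nm), inhibition derived from the 490/520 ratio across compound titrations. IC50 from four-parameter logistic fit.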

[3] = tested on: recombinant human Bcl-2-G101V protein; assay: Bcl-2-G101V TR-FRET Assay; format: binding; details: for Ratio of Bcl-2 G101V/WT: ratio of biochemical IC50 Bcl-2 G101V / Bcl-2 WT
How it was run: as §1

[4] = tested on: RS4;11 (BCL-2 dependent acute lymphoblastic leukemia cell line); assay: RS4;11 Cell Proliferation Assay; format: cell-based; details: Homo sapiens, RS4-11, RS4;11 cells, read-out: Cellular proliferation assay (IC50, nM) RS4
How it was run: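 Viability measured via CellTiter-Glo luminescence after a 48 h, 37 °C exposure to compounds (10 points, highest 1 μM). Seeding was 50,000 RS4;11 cells per well in 10% FBS RPMI-1640; IC50 given as mean.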

[5] = tested on: BCL-2 G101V knock-in cell line H96 (derive from RS4;11); assay: Bcl 2-G101V Knock-In RS4;11 Cell Proliferation Assay; format: cell-based; details: Homo sapiens, RS4;11 Bcl-2 G101V knock-in clone H96, 48 hrs, CellTiter-GLO, read-out: Cellular proliferation assay (IC50, nM) RS4
How it was run: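 CellTiter-Glo luminescence after 48 h, 37 °C compound treatment (10 concentrations, maximum 1 μM or 10 μM) gave mean IC50 values. Cells were 50,000 per well of H96, a BCL2-G101V knock-in single clone derived from RS4;11 by Cas9 editing.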

[6] = target: recombinant human Bcl-2 D103Y protein (Homo sapiens (Human), UniProt P10415, D103Y); assay: Bcl-2-D103Y Biochemical Assay (TR-FRET); format: binding; details: for IC50: TR-FRET, FITC labeled Bak peptide; for Ratio of Bcl-2 D103Y/Bcl-2 WT: ratio of IC50; for ratio of Bcl-2 D103Y/Bcl-2 wt, compared with F91b in WO2019210828: comparison in words
How it was run: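 Compounds titrated against the Bcl-2 D103Y–ligand interaction; inhibition derived from the TR-FRET emission ratio 490 nm/520 nm after 337 nm excitation. Four-parameter logistic fitting gave IC50.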

[7] = Bcl-2 wild type, TR-FRET, read-out: Biochemical assay (IC50, nM) Bcl-2 WT
[8] = wild type Bcl-2, unit inferred, read-out: Bcl-2 WT

SMILES: COc1cc(CN2CCN(C3CC4(C3)CN(c3ccc(C(=O)NS(=O)(=O)c5ccc(NC[C@H]6CC[C@](C)(O)CC6)c([N+](=O)[O-])c5)c(Oc5cnc6[nH]ccc6c5)c3)C4)[C@H](c3ccccc3C(C)C)C2)cnc1OC [Example 242, 2-((1H-pyrrolo[2,3-b]pyridin-5-yl)oxy)-4-(6-((R)-4-((5,6-dimethoxypyridin-3-yl)methyl)-2-(2-isopropylphenyl)piperazin-1-yl)-2-azaspiro[3.3]heptan-2-yl)-N-((4-((((1r,4r)-4-hydroxy-4-methylcyclohexyl)methyl)amino)-3-nitrophenyl)sulfonyl)benzamide]
- IC50 [1, 7]: 0.03 nM
- IC50 [1, 8]: 0.03 nM
- IC50 [2]: 0.077 nM
- Ratio of Bcl-2 G101V/WT [3]: 2.6
- IC50 [4]: 0.17 nM
- IC50 [5]: 0.28 nM
- IC50 [6]: 0.033 nM
- Ratio of Bcl-2 D103Y/Bcl-2 WT [6]: 1.1

SMILES: COc1cc(CN2CCN(C3CC4(C3)CN(c3ccc(C(=O)NS(=O)(=O)c5ccc(NC[C@H]6CC[C@](C)(O)CC6)c([N+](=O)[O-])c5)c(Oc5cnc6[nH]cc(F)c6c5)c3)C4)[C@H](c3ccccc3C(C)C)C2)cnc1OC [Example 205, 4-(6-((R)-4-((5,6-dimethoxypyridin-3-yl)methyl)-2-(2-isopropylphenyl)piperazin-1-yl)-2-azaspiro[3.3]heptan-2-yl)-2-((3-fluoro-1H-pyrrolo[2,3-b]pyridin-5-yl)oxy)-N-((4-((((1r,4r)-4-hydroxy-4-methylcyclohexyl)methyl)amino)-3-nitrophenyl)sulfonyl) benzamide]
- IC50 [1, 7]: 0.034 nM
- IC50 [1, 8]: 0.034 nM
- IC50 [2]: 0.07 nM
- Ratio of Bcl-2 G101V/WT [3]: 2
- IC50 [4]: 0.39 nM
- IC50 [5]: 0.55 nM
- IC50 [6]: 0.047 nM
- Ratio of Bcl-2 D103Y/Bcl-2 WT [6]: 1.4

SMILES: CC(C)c1ccccc1C1CN(CC2CCCCC2)CCN1C1CC2(CCN(c3ccc(C(=O)NS(=O)(=O)c4ccc(NC[C@H]5CC[C@](C)(O)CC5)c([N+](=O)[O-])c4)c(Oc4cnc5[nH]ccc5c4)c3)CC2)C1 (stereo partly shown) [Example 16, 2-((1H-pyrrolo[2,3-b]pyridin-5-yl)oxy)-4-(2-(4-(cyclohexylmethyl)-2-(2-isopropylphenyl)piperazin-1-yl)-7-azaspiro[3.5]nonan-7-yl)-N-((4-((((1r,4r)-4-hydroxy-4-methylcyclohexyl)methyl)amino)-3-nitrophenyl)sulfonyl)benzamide]
- IC50 [1, 7]: 0.26 nM
- IC50 [1, 8]: 0.26 nM
- IC50 [2]: 1.7 nM
- ratio of IC50 of Bcl-2 G101V/Bcl-2 wt, compared with Example F132b in WO2019210828 and ABT-199 (venetoclax) ([3]; comparison in words): much lower
- Ratio of Bcl-2 G101V/WT [3]: 6.5
- IC50 [4]: 0.81 nM
- IC50 [5]: 8.6 nM
- IC50 [6]: 0.63 nM
- ratio of Bcl-2 D103Y/Bcl-2 wt, compared with F91b in WO2019210828 [6]: significantly lower
- Ratio of Bcl-2 D103Y/Bcl-2 WT [6]: 2.5

SMILES: COc1cc(CN2CCN(C3CC4(CCN(c5ccc(C(=O)NS(=O)(=O)c6ccc(NC[C@H]7CC[C@](C)(O)CC7)c([N+](=O)[O-])c6)c(Oc6cnc7[nH]cc(F)c7c6)c5)CC4)C3)[C@H](c3ccccc3C(C)C)C2)cc2c1OCCC2 [Example 299, 2-((3-fluoro-1H-pyrrolo[2,3-b]pyridin-5-yl)oxy)-N-((4-((((1r,4r)-4-hydroxy-4-methylcyclohexyl)methyl)amino)-3-nitrophenyl)sulfonyl)-4-(2-((R)-2-(2-isopropylphenyl)-4-((8-methoxychroman-6-yl)methyl)piperazin-1-yl)-7-azaspiro[3.5]nonan-7-yl)benzamide]
- IC50 [1, 7]: 0.13 nM
- IC50 [1, 8]: 0.13 nM
- IC50 [2]: 0.25 nM
- Ratio of Bcl-2 G101V/WT [3]: 1.9
- IC50 [4]: 0.27 nM
- IC50 [5]: 0.47 nM
- IC50 [6]: 0.13 nM
- Ratio of Bcl-2 D103Y/Bcl-2 WT [6]: 1.0

SMILES: COc1ccc(CN2CCN(C3CC4(C3)CN(c3ccc(C(=O)NS(=O)(=O)c5ccc(NC[C@H]6CC[C@](C)(O)CC6)c([N+](=O)[O-])c5)c(Oc5cnc6[nH]cc(F)c6c5)c3)C4)[C@H](c3ccccc3C(C)C)C2)cn1 [Example 215, 2-((3-fluoro-1H-pyrrolo[2,3-b]pyridin-5-yl)oxy)-N-((4-((((1r,4r)-4-hydroxy-4-methylcyclohexyl)methyl)amino)-3-nitrophenyl)sulfonyl)-4-(6-((R)-2-(2-isopropylphenyl)-4-((6-methoxypyridin-3-yl)methyl)piperazin-1-yl)-2-azaspiro[3.3]heptan-2-yl)benzamide]
- IC50 [1, 7]: 0.057 nM
- IC50 [1, 8]: 0.057 nM
- IC50 [2]: 0.14 nM
- Ratio of Bcl-2 G101V/WT [3]: 2.5
- IC50 [4]: 0.11 nM
- IC50 [5]: 0.29 nM
- IC50 [6]: 0.062 nM
- Ratio of Bcl-2 D103Y/Bcl-2 WT [6]: 1.1

SMILES: CC(C)c1ccccc1C1CN(Cc2ccoc2)CCN1C1CC2(CCN(c3ccc(C(=O)NS(=O)(=O)c4ccc(NC[C@H]5CC[C@](C)(O)CC5)c([N+](=O)[O-])c4)c(Oc4cnc5[nH]ccc5c4)c3)CC2)C1 (stereo partly shown) [Example 20, 2-((1H-pyrrolo[2,3-b]pyridin-5-yl)oxy)-4-(2-(4-(furan-3-ylmethyl)-2-(2-isopropylphenyl)piperazin-1-yl)-7-azaspiro[3.5]nonan-7-yl)-N-((4-((((1r,4r)-4-hydroxy-4-methylcyclohexyl)methyl)amino)-3-nitrophenyl)sulfonyl)benzamide]
- IC50 [1, 7]: 0.053 nM
- IC50 [1, 8]: 0.053 nM
- IC50 [2]: 0.58 nM
- Ratio of Bcl-2 G101V/WT [3]: 10.9
- IC50 [4]: 0.62 nM
- IC50 [5]: 5.91 nM
- IC50 [6]: 0.25 nM
- Ratio of Bcl-2 D103Y/Bcl-2 WT [6]: 4.6

SMILES: COc1ccc(CN2CCN(C3CC4(C3)CN(c3ccc(C(=O)NS(=O)(=O)c5ccc(NC[C@H]6CC[C@](C)(O)CC6)c([N+](=O)[O-])c5)c(Oc5cnc6[nH]cc(F)c6c5)c3)C4)[C@H](c3ccccc3C(C)C)C2)cc1OC1CC1 [Example 364, 4-(6-((R)-4-(3-cyclopropoxy-4-methoxybenzyl)-2-(2-isopropylphenyl)piperazin-1-yl)-2-azaspiro[3.3]heptan-2-yl)-2-((3-fluoro-1H-pyrrolo[2,3-b]pyridin-5-yl)oxy)-N-((4-((((1r,4r)-4-hydroxy-4-methylcyclohexyl)methyl)amino)-3-nitrophenyl)sulfonyl) benzamide]
- IC50 [1, 7]: 0.14 nM
- IC50 [2]: 0.39 nM
- Ratio of Bcl-2 G101V/WT [3]: 2.9
- IC50 [4]: 0.13 nM
- IC50 [5]: 0.2 nM
- IC50 [6]: 0.14 nM
- Ratio of Bcl-2 D103Y/Bcl-2 WT [6]: 1.0

SMILES: CC(C)c1ccccc1C1CC(Oc2ccccc2)CCN1C1CC2(CCN(c3ccc(C(=O)NS(=O)(=O)c4ccc(NC[C@H]5CC[C@](C)(O)CC5)c([N+](=O)[O-])c4)c(Oc4cnc5[nH]ccc5c4)c3)CC2)C1 (stereo partly shown) [Example 68, 2-((1H-pyrrolo[2,3-b]pyridin-5-yl)oxy)-N-((4-((((1r,4r)-4-hydroxy-4-methylcyclohexyl)methyl)amino)-3-nitrophenyl)sulfonyl)-4-(2-(2-(2-isopropylphenyl)-4-phenoxypiperidin-1-yl)-7-azaspiro [3.5]nonan-7-yl)benzamide]
- IC50 [1, 7]: 0.2 nM
- IC50 [1, 8]: 0.2 nM
- IC50 [2]: 0.81 nM
- Ratio of Bcl-2 G101V/WT [3]: 4
- IC50 [4]: 0.47 nM
- IC50 [5]: 4.7 nM
- IC50 [6]: 0.87 nM
- ratio of Bcl-2 D103Y/Bcl-2 wt, compared with F91b in WO2019210828 [6]: significantly lower
- Ratio of Bcl-2 D103Y/Bcl-2 WT [6]: 4.3

SMILES: COc1ccc(CN2CCN(C3CC4(CCN(c5ccc(C(=O)NS(=O)(=O)c6ccc(NCC7(F)CCC(C)(O)CC7)c([N+](=O)[O-])c6)c(Oc6cnc7[nH]ccc7c6)c5)CC4)C3)[C@H](c3ccccc3C(C)C)C2)cc1 (stereo partly drawn) [Example 225, (R)-2-((1H-pyrrolo[2,3-b]pyridin-5-yl)oxy)-N-((4-(((1-fluoro-4-hydroxy-4-methylcyclohexyl)methyl)amino)-3-nitrophenyl)sulfonyl)-4-(2-(2-(2-isopropylphenyl)-4-(4-methoxybenzyl)piperazin-1-yl)-7-azaspiro[3.5]nonan-7-yl) benzamide]
- IC50 [1, 7]: 0.092 nM
- IC50 [1, 8]: 0.092 nM
- IC50 [2]: 0.37 nM
- Ratio of Bcl-2 G101V/WT [3]: 4
- IC50 [4]: 0.13 nM
- IC50 [5]: 0.65 nM
- IC50 [6]: 0.1 nM
- Ratio of Bcl-2 D103Y/Bcl-2 WT [6]: 1.1

SMILES: CC(C)c1ccccc1[C@@H]1CN(Cc2ccc3c(c2)OCCC3)CCN1C1CC2(CCN(c3ccc(C(=O)NS(=O)(=O)c4ccc(NC[C@H]5CC[C@](C)(O)CC5)c([N+](=O)[O-])c4)c(Oc4cnc5[nH]ccc5c4)c3)CC2)C1 [Example 282]
- IC50 [1, 7]: 0.25 nM
- IC50 [1, 8]: 0.25 nM
- IC50 [2]: 0.97 nM
- Ratio of Bcl-2 G101V/WT [3]: 3.9
- IC50 [4]: 0.36 nM
- IC50 [5]: 4.2 nM
- IC50 [6]: 0.47 nM
- Ratio of Bcl-2 D103Y/Bcl-2 WT [6]: 1.9
